Our source for the Activity, IC50 and inhibition values is ChEMBL document CHEMBL2062405, “Alkaloids from the root of Isatis indigotica” (J Nat Prod, 2012).

Activity calls are given as the source filed them. The rule behind the calls is not given here.

One experiment deals with A549. Description: Cytotoxicity against human A549 cells at 10 uM after 96 hrs by MTT assay. In kind it is functional, cell-based.
Another experiment has as its system MCF7. Description: Cytotoxicity against human MCF7 cells at 10 uM after 96 hrs by MTT assay. Format: functional, cell-based. Background: Formazan colour is commonly taken as a measure of viable cells.
Another experiment relates to HCT-8. In words: Cytotoxicity against human HCT8 cells at 10 uM after 96 hrs by MTT assay. In kind it is functional, cell-based.
Another experiment relates to Human alphaherpesvirus 1. In words: Antiviral activity against Herpes simplex virus 1 at 10 uM. In kind it is functional, organism-based.
Another experiment relates to BGC-823. In words: Cytotoxicity against human BGC823 cells at 10 uM after 96 hrs by MTT assay. In kind it is functional, cell-based.
For a further experiment, the system named is KETR3. In words: Cytotoxicity against human Ketr3 cells at 10 uM after 96 hrs by MTT assay. In kind it is functional, cell-based.
For experiment [1], the system named is Human immunodeficiency virus 1. In words: Antiviral activity against HIV1 infected in 293T cells cotransfected with VSV-G at 10 uM after 48 hrs by ELISA. In kind it is functional, organism-based. (In general: An ELISA detects its analyte on a solid surface through an enzyme-linked reagent.)
Another experiment deals with Influenza A virus. Description: Antiviral activity against influenza A virus A/Hanfang/359/95 (H3N2) assessed as inhibition of virus-induced cytopathic effect in cell-based assay. Format: functional, organism-based.
Another experiment relates to Bel-7402. In words: Cytotoxicity against human Bel7402 cells at 10 uM after 96 hrs by MTT assay. Format: functional, cell-based.
Experiment [2] in a line: Hepatoprotective activity in rat WB-F344 cells assessed as inhibition of DL-Galactosamine-induced toxicity at 10 uM incubated for 1 hr prior to DL-Galactosamine-challenge measured after 24 hrs by MTT assay. Format: functional.
The next experiment relates to Coxsackievirus B3. In words: Antiviral activity against Coxsackievirus B3 assessed as inhibition of viral replication. Format: functional, organism-based. The conditions noted are these: Enterovirus B.

In general, IC50 refers to the concentration that gives 50% inhibition. For orientation: inhibition means the share of the control response that was lost under treatment.

Take `COc1cccc2[nH]cc(CC#N)c12` [ARVELEXIN]: the outcome in the experiment on A549, with MCF7, in the experiment with HCT-8, in the experiment with Human alphaherpesvirus 1, with BGC-823 and in the experiment on KETR3 was inactive. Also, the result (in [1]; in the experiment on Bel-7402) was inactive. In addition, the IC50 with Influenza A virus was found to be 3.7 µM.

For the compound `COc1cccc2c1[C@@](O)(CC#N)C(=O)N2`, the result in the experiment on A549, in the experiment with MCF7, in the experiment on HCT-8, in the experiment with Human alphaherpesvirus 1, in the experiment with BGC-823 and in the experiment on KETR3 was inactive. The result (in experiment [1]; with Bel-7402) was inactive. In addition, in experiment [2], the inhibition at 10 µM was 47%.

Consider `Cc1cc(CCCOc2c(C)cc(-c3noc(C(F)(F)F)n3)cc2C)on1` [PLECONARIL], for which the IC50 with Coxsackievirus B3 stood at 0.41 µM.

With `CCOC(=O)C1=C[C@@H](OC(CC)CC)[C@H](NC(C)=O)[C@@H](N)C1` [OSELTAMIVIR], in the experiment with Influenza A virus, the IC50 was 1.23 µM.

Consider `NC(=O)[C@@H]1CC(=O)Nc2ccccc21`, for which the result with A549, in the experiment on MCF7, with HCT-8, in the experiment on Human alphaherpesvirus 1, in the experiment with BGC-823 and in the experiment on KETR3 was inactive. In addition, the result (in experiment [1]; in the experiment on Bel-7402) was inactive. Besides, in [2], the inhibition at 10 µM came out at 45%.

With `NC(=O)CC1C(=O)Nc2ccccc21` (racemic), the result with A549, in the experiment with MCF7, in the experiment on HCT-8, with Human alphaherpesvirus 1, in the experiment with BGC-823 and with KETR3 was inactive. Besides, the outcome (in [1]; in the experiment with Bel-7402) was inactive. Also, the IC50 in the experiment on Coxsackievirus B3 was determined as 6.87 µM.

`COc1ccc(C(C#N)c2c[nH]c3ccccc23)c2[nH]cc(CC#N)c12` (single isomer, unassigned): the outcome with A549, in the experiment on MCF7, in the experiment on HCT-8, with Human alphaherpesvirus 1, in the experiment on BGC-823 and with KETR3 was inactive. Moreover, the result (in experiment [1]; with Bel-7402) was inactive. Moreover, the IC50 with Influenza A virus is 3.7 µM.

As to `O=C1/C(=C/c2c[nH]c3ccccc23)Nc2ccccc21`, the result with A549, in the experiment with MCF7, in the experiment on HCT-8, with Human alphaherpesvirus 1, in the experiment on BGC-823 and in the experiment with KETR3 was inactive. The result (in experiment [1]; in the experiment on Bel-7402) was inactive. The inhibition at 10 µM in experiment [2] was found to be 44%.

On to `N#CC[C@H]1C(=O)Nc2cccc(O)c21`, for which the result with A549, in the experiment on MCF7, in the experiment with HCT-8, with Human alphaherpesvirus 1, in the experiment with BGC-823 and in the experiment with KETR3 was inactive. The result (in [1]; in the experiment with Bel-7402) was inactive. Further, the inhibition at 10 µM in [2] turned out to be 46%.

Consider `COc1ccc([C@@H](C)c2ccc(O)cc2)c2[nH]cc(CC#N)c12`, for which the result with A549, in the experiment with MCF7, with HCT-8, in the experiment with Human alphaherpesvirus 1, with BGC-823 and in the experiment with KETR3 was inactive. The outcome (in experiment [1]; with Bel-7402) was inactive. Further, in the experiment with Influenza A virus, the IC50 was 3.7 µM.

On to `COc1cccc2[nH]cc(C(C#N)c3ccc(OC)c4c(CC#N)c[nH]c34)c12` (single isomer, unassigned), for which the result in the experiment with A549, with MCF7, with HCT-8, in the experiment with Human alphaherpesvirus 1, with BGC-823 and in the experiment on KETR3 was inactive. In addition, the result (in [1]; in the experiment on Bel-7402) was inactive. Also, the IC50 in the experiment with Influenza A virus turned out to be 3.7 µM.
